Patent US8399502B2, “Analogs of indole-3-carbinol and their use as agents against infection” (priority 2008, dated 2013)
In brackets after ≈: the same amount, converted by molar mass.

How the values were obtained:
Assay in all cases: microbe, parasite or virus in culture
Format in all cases: cell-based
[1] = tested on: Burkholderia pseudomallei (BP; Gram-negative); details: read-out: MIC BP
[2] = tested on: Burkholderia mallei (BM; Gram-negative); details: read-out: MIC BM
[3] = tested on: Francisella tularensis (FT; Gram-negative); details: read-out: MIC FT
[4] = tested on: Bacillus anthracis (BA; Gram-positive); details: read-out: MIC BA
[5] = tested on: Yersinia pestis (YP; Gram-negative); details: read-out: MIC YP
[6] = tested on: Brucella abortus (BAB; Gram-negative); details: read-out: MIC BAB

Cc1c2[nH]c3ccc(F)cc3c2cc2c1[nH]c1ccc(F)cc12
MIC [1]: > 16 µg/mL
MIC [2]: > 16 µg/mL
MIC [3]: 0.5 µg/mL (≈ 1.63 µM)
MIC [4]: 0.5 µg/mL (≈ 1.63 µM)
MIC [5]: > 16 µg/mL
MIC [6]: 1 µg/mL (≈ 3.26 µM)

CCN(CC)CCOc1c2[nH]c3ccc(F)cc3c2cc2c1[nH]c1ccc(F)cc12
MIC [3]: 0.5 µg/mL (≈ 1.23 µM)
MIC [4]: 1 µg/mL (≈ 2.45 µM)
MIC [5]: > 16 µg/mL
MIC [6]: 1 µg/mL (≈ 2.45 µM)

Fc1ccc2[nH]c3c(OCCN4CCCC4)c4[nH]c5ccc(F)cc5c4cc3c2c1
MIC [1]: > 16 µg/mL
MIC [2]: > 16 µg/mL
MIC [3]: 0.5 µg/mL (≈ 1.23 µM)
MIC [4]: 1 µg/mL (≈ 2.47 µM)
MIC [5]: 8 µg/mL (≈ 19.7 µM)
MIC [6]: 1 µg/mL (≈ 2.47 µM)

CC(CN(C)C)Oc1c2[nH]c3ccc(F)cc3c2cc2c1[nH]c1ccc(F)cc12 (centres unmarked)
MIC [3]: 0.5 µg/mL (≈ 1.27 µM)
MIC [4]: 1 µg/mL (≈ 2.54 µM)
MIC [5]: 16 µg/mL (≈ 40.7 µM)
MIC [6]: 0.5 µg/mL (≈ 1.27 µM)

FC(F)(F)c1c2[nH]c3ccccc3c2cc2c1[nH]c1ccccc12
MIC [1]: > 16 µg/mL
MIC [2]: > 16 µg/mL
MIC [3]: 0.5 µg/mL (≈ 1.54 µM)
MIC [4]: 1 µg/mL (≈ 3.08 µM)
MIC [5]: > 16 µg/mL
MIC [6]: 2 µg/mL (≈ 6.17 µM)

COc1c2[nH]c3ccc(F)cc3c2c(N2CCCC2)c2c1[nH]c1ccc(F)cc12
MIC [1]: > 16 µg/mL
MIC [2]: > 16 µg/mL
MIC [3]: 0.5 µg/mL (≈ 1.28 µM)
MIC [4]: 1 µg/mL (≈ 2.55 µM)
MIC [5]: > 16 µg/mL
MIC [6]: 2 µg/mL (≈ 5.11 µM)

NCCCOc1c2[nH]c3ccc(F)cc3c2cc2c1[nH]c1ccc(F)cc12
MIC [1]: 8 µg/mL (≈ 21.9 µM)
MIC [2]: 8 µg/mL (≈ 21.9 µM)
MIC [3]: 0.5 µg/mL (≈ 1.37 µM)
MIC [4]: 0.5 µg/mL (≈ 1.37 µM)
MIC [5]: 2 µg/mL (≈ 5.47 µM)
MIC [6]: 0.5 µg/mL (≈ 1.37 µM)

CN(C)CCOc1c2[nH]c3ccc(Cl)cc3c2cc2c1[nH]c1ccc(Cl)cc12
MIC [1]: 16 µg/mL (≈ 38.8 µM)
MIC [2]: 8 µg/mL (≈ 19.4 µM)
MIC [3]: 0.25 µg/mL (≈ 0.606 µM)
MIC [4]: 0.5 to 1 µg/mL (≈ 1.21 to 2.43 µM)
MIC [5]: 2 µg/mL (≈ 4.85 µM)
MIC [6]: 0.5 µg/mL (≈ 1.21 µM)

CN(C)CCOc1c2[nH]c3ccc(F)cc3c2c(Br)c2c1[nH]c1ccc(F)cc12
MIC [1]: > 8 µg/mL
MIC [2]: > 8 µg/mL
MIC [3]: 0.25 µg/mL (≈ 0.545 µM)
MIC [4]: 0.25 µg/mL (≈ 0.545 µM)
MIC [5]: > 8 µg/mL
MIC [6]: 0.25 µg/mL (≈ 0.545 µM)

NCCCOc1c2[nH]c3ccc(Cl)cc3c2cc2c1[nH]c1ccc(Cl)cc12
MIC [1]: 8 µg/mL (≈ 20.1 µM)
MIC [2]: 4 µg/mL (≈ 10 µM)
MIC [3]: 0.25 to 0.5 µg/mL (≈ 0.628 to 1.26 µM)
MIC [4]: 0.5 µg/mL (≈ 1.26 µM)
MIC [5]: 2 µg/mL (≈ 5.02 µM)
MIC [6]: 0.5 µg/mL (≈ 1.26 µM)

NC1CCN(CCCOc2c3[nH]c4ccc(F)cc4c3cc3c2[nH]c2ccc(F)cc23)CC1
MIC [3]: 0.125 to 0.5 µg/mL (≈ 0.279 to 1.11 µM)
MIC [4]: 0.5 µg/mL (≈ 1.11 µM)
MIC [5]: 2 µg/mL (≈ 4.46 µM)
MIC [6]: 0.5 µg/mL (≈ 1.11 µM)

N[C@H]1CCN(CCCOc2c3[nH]c4ccc(F)cc4c3cc3c2[nH]c2ccc(F)cc23)C1
MIC [3]: 0.5 µg/mL (≈ 1.15 µM)
MIC [4]: 1 µg/mL (≈ 2.3 µM)
MIC [5]: 4 µg/mL (≈ 9.21 µM)
MIC [6]: 1 µg/mL (≈ 2.3 µM)

NCCOc1c2[nH]c3ccc(Cl)cc3c2cc2c1[nH]c1ccc(Cl)cc12
MIC [1]: 8 µg/mL (≈ 20.8 µM)
MIC [2]: 4 µg/mL (≈ 10.4 µM)
MIC [3]: 0.5 µg/mL (≈ 1.3 µM)
MIC [4]: 2 µg/mL (≈ 5.2 µM)
MIC [5]: 2 µg/mL (≈ 5.2 µM)
MIC [6]: 0.5 µg/mL (≈ 1.3 µM)

CN(C)CCCc1c2[nH]c3ccc(F)cc3c2cc2c1[nH]c1ccc(F)cc12
MIC [1]: > 16 µg/mL
MIC [2]: 16 µg/mL (≈ 42.4 µM)
MIC [3]: 1 µg/mL (≈ 2.65 µM)
MIC [4]: 1 µg/mL (≈ 2.65 µM)
MIC [5]: 8 µg/mL (≈ 21.2 µM)
MIC [6]: 1 µg/mL (≈ 2.65 µM)

NC1CCN(CCCOc2c3[nH]c4ccc(Cl)cc4c3cc3c2[nH]c2ccc(Cl)cc23)CC1
MIC [1]: > 16 µg/mL
MIC [2]: 16 µg/mL (≈ 33.2 µM)
MIC [3]: 1 µg/mL (≈ 2.08 µM)
MIC [4]: 2 µg/mL (≈ 4.15 µM)
MIC [5]: 4 µg/mL (≈ 8.31 µM)
MIC [6]: 1 µg/mL (≈ 2.08 µM)

NC1CCN(CCOc2c3[nH]c4ccc(Cl)cc4c3cc3c2[nH]c2ccc(Cl)cc23)CC1
MIC [3]: 0.5 µg/mL (≈ 1.07 µM)
MIC [4]: 2 µg/mL (≈ 4.28 µM)
MIC [5]: 16 µg/mL (≈ 34.2 µM)
MIC [6]: 1 µg/mL (≈ 2.14 µM)

OC1CCN(CCCOc2c3[nH]c4ccc(F)cc4c3cc3c2[nH]c2ccc(F)cc23)C1 (centres unmarked)
MIC [1]: 8 µg/mL (≈ 18.4 µM)
MIC [2]: 8 µg/mL (≈ 18.4 µM)
MIC [3]: 0.5 µg/mL (≈ 1.15 µM)
MIC [4]: 0.5 µg/mL (≈ 1.15 µM)
MIC [5]: 8 µg/mL (≈ 18.4 µM)
MIC [6]: 0.251 µg/mL (≈ 0.576 µM)

Clc1ccc2[nH]c3c(OCCCNC4CCNCC4)c4[nH]c5ccc(Cl)cc5c4cc3c2c1
MIC [1]: 8 µg/mL (≈ 16.6 µM)
MIC [2]: 4 µg/mL (≈ 8.31 µM)
MIC [3]: 1 µg/mL (≈ 2.08 µM)
MIC [4]: 1 µg/mL (≈ 2.08 µM)
MIC [5]: 2 µg/mL (≈ 4.15 µM)
MIC [6]: 1 µg/mL (≈ 2.08 µM)

N[C@H]1CCN(CCCOc2c3[nH]c4ccc(Cl)cc4c3cc3c2[nH]c2ccc(Cl)cc23)C1
MIC [1]: > 8 µg/mL
MIC [2]: > 8 µg/mL
MIC [3]: 0.5 µg/mL (≈ 1.07 µM)
MIC [4]: 0.5 µg/mL (≈ 1.07 µM)
MIC [5]: 2 µg/mL (≈ 4.28 µM)
MIC [6]: 0.25 µg/mL (≈ 0.535 µM)

C[N+](C)(C)CCOc1c2[nH]c3ccc(F)cc3c2cc2c1[nH]c1ccc(F)cc12.[I-]
MIC [1]: 8 µg/mL
MIC [2]: 8 µg/mL
MIC [3]: 1 µg/mL
MIC [4]: 0.5 µg/mL
MIC [5]: > 8 µg/mL
MIC [6]: 2 µg/mL

Nc1nnn(CCCOc2c3[nH]c4ccc(Cl)cc4c3cc3c2[nH]c2ccc(Cl)cc23)n1
MIC [1]: > 8 µg/mL
MIC [2]: > 8 µg/mL
MIC [3]: 1 µg/mL (≈ 2.14 µM)
MIC [4]: 0.5 µg/mL (≈ 1.07 µM)
MIC [5]: > 8 µg/mL
MIC [6]: 1 µg/mL (≈ 2.14 µM)

Nc1nnnn1CCCOc1c2[nH]c3ccc(Cl)cc3c2cc2c1[nH]c1ccc(Cl)cc12
MIC [1]: > 8 µg/mL
MIC [2]: > 8 µg/mL
MIC [3]: 1 µg/mL (≈ 2.14 µM)
MIC [4]: 0.5 µg/mL (≈ 1.07 µM)
MIC [5]: > 8 µg/mL
MIC [6]: 0.5 µg/mL (≈ 1.07 µM)
